Measurements taken from patent US4011332A, “Hemorrhagic-lesion producing and anticoagulant-containing compositions and their use” (priority 1974, dated 1977).
Where two headings read alike, the source gives them in different places.

What was measured:
Sprague-Dawley rats [1] = test: animal or person; assay type: in vivo; conditions: for LD100 (interpolated): component (b) with 2 mg/kg 4-hydroxy-2-oxo-3-(1-phenylpropyl)-2H-chromene, single oral dose, 10 days
Text: Note the number of animals which die within 10 days of the respective administrations.

Sprague-Dawley rats [2] = test: LD5 determination / hemorrhagic stomach and gut lesions after single oral dose; conditions: for LD5: single oral dose, Sprague-Dawley rats, empty stomach; for LD5 (criterion for rat strain to be used): rat strain advisable for the test
Protocol: A selection of compounds from those suitable for component (b) is, however, made in a simpler manner by determining the LD5 (in mg/kg). […] Determination of the cause of death is effected, e.g., by autopsy of the dead animals.
The rats were kept in groups of 5 and four animals in plastic cages of the type M III. The room temperature was maintained at approximately 23° C. For determining the lethal doses, as mentioned in the following description, the rats were fed on empty stomachs. The animals received the noted compounds [for example, component (a) or (b) or the composition containing both] in a volume of liquid amounting to 5 ml per kg of body weight of the rat. The administration of the liquid was carried out once using a feeding tube introduced into the oesophagus. The doses of the active substances [component (a), component (b) or the composition] were varied. Component (b) was administered as a sodium salt in aqueous solution, and the number of animals which died within 10 days after administration was noted.
The lethal doses (LD5, LD50 and LD100 in mg/kg) were determined by simple linear regression, while the limits of trust were determined by the method of Litchfield and Wilcoxon.
Thereafter autopsy the dead animals to determine the cause of death.

Sprague-Dawley rats [3] = conditions: for LD50 oral, in combination with component (b) 2 mg/kg: with 2 mg/kg 1-phenyl-3,5-di-(2-thienyl)-4-pyrazole acetic acid; for LD50 oral, in combination with component (b) 1 mg/kg: with 1 mg/kg 1-phenyl-3,5-di-(2-thienyl)-4-pyrazole acetic acid
Protocol: *Ingestion volume: 5 ml/kg, period of observation: 10 days

[4] = system: wild rats (Rattus norvegicus and Rattus ratus); test: LD100 of combinations in wild rats, single oral dose (Example 3); assay type: in vivo; conditions: full stomachs, 10 days
[5] = system: female Sprague-Dawley rats; test: Rodenticidal bait test, mortality in 10 days (Example 12, Table IV); assay type: in vivo; conditions: one day, 10 days observation
Text: Following the rules for the examination of rodenticides against rats and mice (edited by Bundesgeshundheitsamt, Institut fuer Wasser-, Boden- und Lufthygiene, Biologische Bundesanstalt fur Land- und Forstwirtschaft, Staatliches Medizinaluntersuchungsamt, Abt. fuer hygienische Schadlingsbekampfung), female Sprague-Dawley rats weighing about 200 grams, kept in single boxes, were provided with the rodenticidal active substances* alone or in combination (expressed in mg/kg) in 4 grams of bait per rat, i.e. 20 g of bait/kg of body weight. These soft consistent, i.e. not crumbly, baits were prepared from Semmelmehl (i.e. powder prepared by grinding dry white bread) and some water. The rats on an empty stomach were provided with these baits as the only food during one day, tap water was ad libitum.
* 4-hydroxy-2-oxo-3-(3-oxo-1-phenyl-butyl)-2H-chromene and 1,5-diphenyl-3-(p-chlorophenyl)-4-pyrazole acetic acid
Thereafter, the animals were provided with usual standard diet Atromine R for the remaining duration of the test.
The mortality rate was determined during a test period of 10 days.

[6] = alone, 5 ml/kg, observation 10 days

## CC(C(=O)O)c1ccc(C2CCCCC2)c(Cl)c1 (single isomer, unassigned) [N, d(+)-3-chloro-4-cyclohexyl-α-methyl-phenylacetic acid]
Sprague-Dawley rats [1]
  LD100 (interpolated): 5 to 10 mg/kg
Sprague-Dawley rats [2]
  LD5: < 15 mg/kg of body weight

## O=C1c2ccccc2C(=O)C1c1ccccc1 [2-phenylindandione-(1,3)]
Sprague-Dawley rats [3]; [6]
  LD50 oral, alone: above 100 mg/kg of body weight
Sprague-Dawley rats [3]; 5 ml/kg, observation 10 days
  LD50 oral, in combination with component (b) 2 mg/kg: not less than 50 mg/kg of body weight

## O=C(O)Cc1c(-c2cccs2)nn(-c2ccccc2)c1-c1cccs1 [A, 1-phenyl-3,5-di-(2-thienyl)-4-pyrazole acetic acid]
Sprague-Dawley rats [1]
  LD100 (interpolated): ~ 2.0 mg/kg
Sprague-Dawley rats [2]
  LD5: < 5 mg/kg of body weight
[4]; component (a) 0 mg/kg
  LD100, component (b): 7 mg/kg of rat body weight
[4]; with component (a) 2 mg/kg
  LD100, component (b) in combination: 3 mg/kg of rat body weight
[4]; with component (a) 3 mg/kg
  LD100, component (b) in combination: 2 mg/kg of rat body weight
[4]; with component (a) 4 mg/kg
  LD100, component (b) in combination: 1.5 mg/kg of rat body weight

## O=C(O)Cc1c(-c2ccc(Cl)cc2)nn(-c2ccccc2)c1-c1ccccc1 [B, 1,5-diphenyl-3-(p-chlorophenyl)-4-pyrazole acetic acid]
Sprague-Dawley rats [1]
  LD100 (interpolated): 1.5 mg/kg
Sprague-Dawley rats [2]
  LD5: < 5 mg/kg of body weight

## O=C(O)Cc1c(-c2ccccc2)nn(-c2ccccc2)c1-c1ccccc1 [C, 1,3,5-triphenyl-4-pyrazole acetic acid]
Sprague-Dawley rats [1]
  LD100 (interpolated): 3.0 mg/kg
Sprague-Dawley rats [2]
  LD5: < 5 mg/kg of body weight

## CCC(c1ccccc1)c1c(O)c2ccccc2oc1=O (stereo not drawn) [Component 1.1, 4-hydroxy-2-oxo-3-(1-phenylpropyl)-2H-chromene, reference compound]
Sprague-Dawley rats [1]; Rattus norvegicus, po, 240 h, anticoagulant alone, Sprague-Dawley rats
  LD100: 17 mg/kg
Sprague-Dawley rats [3]; [6]
  LD50 oral, alone: 3.0 mg/kg of body weight
Sprague-Dawley rats [3]; 5 ml/kg, observation 10 days
  LD50 oral, in combination with component (b) 1 mg/kg: 1.7 mg/kg of body weight
  LD50 oral, in combination with component (b) 2 mg/kg: 0.55 mg/kg of body weight
[4]; Rattus norvegicus, 240 h, component (b) 0 mg/kg
  LD100: 45 mg/kg
[4]; with component (b) 1.5 mg/kg
  LD100, component (a) in combination: 4 mg/kg of rat body weight
[4]; with component (b) 2 mg/kg
  LD100, component (a) in combination: 3 mg/kg of rat body weight
[4]; with component (b) 3 mg/kg
  LD100, component (a) in combination: 2 mg/kg of rat body weight

## CC(=O)CC(c1ccccc1)c1c(O)c2ccccc2oc1=O (stereo not drawn) [Component 1.2, 4-hydroxy-2-oxo-3-(3-oxo-1-phenylbutyl)-2H-chromene]
Sprague-Dawley rats [3]; rat, in vivo, po, 240 h
  LD50 oral, alone: 7.0 mg/kg of body weight
Sprague-Dawley rats [3]; 5 ml/kg, observation 10 days
  LD50 oral, in combination with component (b) 1 mg/kg: 4 mg/kg of body weight
  LD50 oral, in combination with component (b) 2 mg/kg: 0.4 mg/kg of body weight
[5]; Component 1.2 100 mg/kg in bait
  % of Animals which Died: 80%
[5]; Component 1.2 200 mg/kg in bait
  % of Animals which Died: 80%

## CC(C)(C)C(=O)C1C(=O)c2ccccc2C1=O [Component 1.4, 2-pivaloyl-1,3-indandione]
Sprague-Dawley rats [3]; [6]
  LD50 oral, alone: above 5 mg/kg of body weight
Sprague-Dawley rats [3]; 5 ml/kg, observation 10 days
  LD50 oral, in combination with component (b) 2 mg/kg: above 1 mg/kg of body weight

## CC(=O)CC(c1ccc([N+](=O)[O-])cc1)c1c(O)c2ccccc2oc1=O (stereo not drawn) [Component 1.6, 4-hydroxy-2-oxo-3-[3-oxo-1-(4-nitrophenyl)butyl]-2H-chromene]
Sprague-Dawley rats [3]; [6]
  LD50 oral, alone: above 100 mg/kg of body weight
Sprague-Dawley rats [3]; 5 ml/kg, observation 10 days
  LD50 oral, in combination with component (b) 2 mg/kg: 1.3 mg/kg of body weight

## O=C(O)Cc1c(-c2cccs2)nn(-c2ccc(Cl)cc2)c1-c1cccs1 [D, 1-(p-chlorophenyl)-3,5-di-(2-thienyl)-4-pyrazole acetic acid]
Sprague-Dawley rats [1]
  LD100 (interpolated): 5.0 mg/kg
Sprague-Dawley rats [2]
  LD5: < 5 mg/kg of body weight

## COc1ccc2c(c1)c(CC(=O)O)c(C)n2C(=O)c1ccc(Cl)cc1 [E, reference compound]
Sprague-Dawley rats [1]
  LD100 (interpolated): 7.5 mg/kg
Sprague-Dawley rats [2]
  LD5 (criterion for rat strain to be used): approximately 7 mg/kg of body weight
  LD5: < 15 mg/kg of body weight

## O=C(O)Cc1c(C2CCCCC2)nn(-c2ccccc2)c1-c1ccccc1 [F, 3-cyclohexyl-1,5-diphenyl-4-pyrazole acetic acid]
Sprague-Dawley rats [1]
  LD100 (interpolated): 7.5 mg/kg
Sprague-Dawley rats [2]
  LD5: < 15 mg/kg of body weight

## COc1ccc(-c2c(CC(=O)O)c(-c3ccccc3)nn2-c2ccccc2)cc1 [G, 1,3-diphenyl-5-(p-methoxyphenyl)-4-pyrazole acetic acid]
Sprague-Dawley rats [1]
  LD100 (interpolated): ~ 10.0 mg/kg
Sprague-Dawley rats [2]
  LD5: < 15 mg/kg of body weight

## COc1ccc(-n2nc(-c3ccccc3)c(CC(=O)O)c2-c2ccccc2)cc1 [H, 3,5-diphenyl-1-(p-methoxyphenyl)-4-pyrazole acetic acid]
Sprague-Dawley rats [1]
  LD100 (interpolated): ~ 10.00 mg/kg
Sprague-Dawley rats [2]
  LD5: < 15 mg/kg of body weight

## O=C(O)c1ccccc1O [I, salicylic acid, reference compound]
Sprague-Dawley rats [2]
  LD5: above 100 mg/kg of body weight

## CC(=O)Oc1ccccc1C(=O)O [K, acetylsalicylic acid, reference compound]
Sprague-Dawley rats [2]
  LD5: above 100 mg/kg of body weight

## CN1C(C(=O)Nc2nccs2)=C(O)c2ccccc2S1(=O)=O [L, n-(2-thiazolyl)-4-hydroxy-2-methyl-2H-1,2-benzothiazine-3-carboxamide-1,1-dioxide]
Sprague-Dawley rats [1]
  LD100 (interpolated): ≤ 20.00 mg/kg
Sprague-Dawley rats [2]
  LD5: < 50 mg/kg of body weight

## O=C(O)Cc1c(-c2cccs2)nn(-c2ccccc2Cl)c1-c1cccs1 [M, 1(o-chlorophenyl)-3,5-(2-thienyl)-4-pyrazole acetic acid]
Sprague-Dawley rats [1]
  LD100 (interpolated): 10 to 50 mg/kg
Sprague-Dawley rats [2]
  LD5: < 15 mg/kg of body weight

## O=C(O)Cc1c(-c2ccco2)nn(-c2ccccc2)c1-c1ccco1 [O, 1-phenyl-3,5-di-(2-furyl)-4-pyrazole acetic acid]
Sprague-Dawley rats [1]
  LD100 (interpolated): ~ 50 mg/kg
Sprague-Dawley rats [2]
  LD5: < 50 mg/kg of body weight

## CN1C(=O)C(C(=O)Nc2ccc(F)cc2F)c2ccccc21 (stereo not drawn) [P, 1-methyl-2',4'-difluoroxindole-3-carboxanilide]
Sprague-Dawley rats [2]
  LD5: < 50 mg/kg of body weight

## CN1C(O)=C(C(=O)Nc2ccc(Br)cc2)c2ccccc2S1(=O)=O [Q, n-(4-bromophenyl)-3-hydroxy-2-methyl-2H-1,2-benzothiazine-4-carboxamide-1,1-dioxide]
Sprague-Dawley rats [2]
  LD5: < 50 mg/kg of body weight

## CN1C(O)=C(C(=O)Nc2ccc([N+](=O)[O-])cc2)c2ccccc2S1(=O)=O [R, n-(4-nitrophenyl)-3-hydroxy-2-methyl-2H-1,2-benzothiazine-4-carboxamide-1,1-dioxide]
Sprague-Dawley rats [2]
  LD5: < 50 mg/kg of body weight

## CCCCC1C(=O)N(c2ccccc2)N(c2ccccc2)C1=O [phenylbutazone, reference compound]
Sprague-Dawley rats [2]
  LD5 (criterion for rat strain to be used): 600 mg/kg of body weight
